# PMC12426935, “On-Cell Saturation Transfer Difference NMR Spectroscopy on Ion Channels: Characterizing Negative Allosteric Modulator Binding Interactions of P2X7” (Journal of the American Chemical Society, 2025)
# Where two headings read alike, the source gives them in different places.
# How the values were obtained:
# [1] = biological target: T1, rat P2X7 (rP2X7) (Rattus norvegicus, UniProt Q64663); test: fura-2 intracellular calcium assay on HEK-293 stable cell line expressing rat P2X7; type: cell-based; settings: Rat P2X7 (Table 1), n = 3
# T1 construct: expressed in transfected cells
# T1 sequence (Q64663 1-595): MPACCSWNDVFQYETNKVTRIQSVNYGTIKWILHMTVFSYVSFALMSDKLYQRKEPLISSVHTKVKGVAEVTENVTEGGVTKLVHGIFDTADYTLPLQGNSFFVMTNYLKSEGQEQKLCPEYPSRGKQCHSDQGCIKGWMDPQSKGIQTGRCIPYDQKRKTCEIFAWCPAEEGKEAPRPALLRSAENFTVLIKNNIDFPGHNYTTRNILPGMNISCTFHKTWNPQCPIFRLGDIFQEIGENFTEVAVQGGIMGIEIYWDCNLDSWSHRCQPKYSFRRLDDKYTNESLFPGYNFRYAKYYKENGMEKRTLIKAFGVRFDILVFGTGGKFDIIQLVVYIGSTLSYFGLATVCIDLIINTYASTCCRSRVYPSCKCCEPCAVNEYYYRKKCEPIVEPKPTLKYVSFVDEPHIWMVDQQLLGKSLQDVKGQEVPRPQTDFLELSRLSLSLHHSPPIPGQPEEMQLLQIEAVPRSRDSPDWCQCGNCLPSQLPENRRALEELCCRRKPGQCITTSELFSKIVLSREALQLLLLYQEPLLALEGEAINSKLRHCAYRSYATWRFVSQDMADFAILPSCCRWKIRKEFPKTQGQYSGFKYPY
# Method: (§1) Genetically edited HEK-293 cells lacking P2Y2 receptors were used to generate stable cell lines expressing human P2X7 (hP2X7), mouse P2X7 (mP2X7), rat P2X7 (rP2X7), or mutants of the hP2X7 NAM site (F88A, M105A, and F103A). Transfection was performed using lipofectamine 2000 (Fisher Scientific), and cells were subjected to Geneticin (800 μg/mL) selection for 2–3 weeks. This was followed by single cell cloning by limiting dilution in 96-well plates. Individual clones were selected for further study based on ATP-induced TO-PRO-3 uptake on a BD Cytoflex flow cytometer. Cell lines were maintained in DMEM:F12 media supplemented with 10% fetal bovine serum (PanBiotech), penicillin and streptomycin (Fisher Scientific) and kept in a humidified incubator with 5% CO2. Stable P2X7-expressing cells were kept under Geneticin selection at a concentration of 400 μg/mL. Passaging was performed twice weekly using 0.25% Trypsin-EDTA (Fisher Scientific).
# (§2) P2X7 responses were measured by monitoring intracellular calcium responses using fura-2AM loaded cells. Cells were plated at 2–2.5 × 10^4 cells/well the day before experiments in 96-well plates (NUNC) coated with 50 μg/mL poly-D-lysine (Merck Millipore). A loading buffer containing 2 μM fura-2AM (HelloBio) and 250 μM sulfinpyrazone (Merck Millipore) in a low divalent buffer (145 mM NaCl, 5 mM KCl, 0.2 mM CaCl2, 10 mM HEPES, 13 mM glucose, pH 7.3) was added to cells for 45 min at 37 °C. After loading, the buffer was removed and replaced with calcium-containing extracellular solution (145 mM NaCl, 5 mM KCl, 2 mM CaCl2, 10 mM HEPES, 13 mM glucose, pH 7.3). Responses were measured using a Flexstation 3 plate reader (Molecular Devices) with dual excitation wavelengths of 340 and 380 nm and single emission wavelength of 510 nm. The sample interval was 3.5 s, and each well was recorded for 180 s. Fura-2 ratios were calculated in Softmax Pro v5.4; zero baseline was applied, and responses were measured as normalized area under the curve (AUC). Dose inhibition curves were plotted using GraphPad Prism v6 nonlinear regression (three parameter fit) and log IC50 values reported.
# [2] = biological target: T2, mouse P2X7 (mP2X7) (Mus musculus, UniProt Q9Z1M0); test: fura-2 intracellular calcium assay on HEK-293 stable cell line expressing mouse P2X7; type: cell-based; settings: Mouse P2X7 (Table 1); mean in brackets, n = 3
# T2 construct: expressed in transfected cells
# T2 sequence (Q9Z1M0 1-595): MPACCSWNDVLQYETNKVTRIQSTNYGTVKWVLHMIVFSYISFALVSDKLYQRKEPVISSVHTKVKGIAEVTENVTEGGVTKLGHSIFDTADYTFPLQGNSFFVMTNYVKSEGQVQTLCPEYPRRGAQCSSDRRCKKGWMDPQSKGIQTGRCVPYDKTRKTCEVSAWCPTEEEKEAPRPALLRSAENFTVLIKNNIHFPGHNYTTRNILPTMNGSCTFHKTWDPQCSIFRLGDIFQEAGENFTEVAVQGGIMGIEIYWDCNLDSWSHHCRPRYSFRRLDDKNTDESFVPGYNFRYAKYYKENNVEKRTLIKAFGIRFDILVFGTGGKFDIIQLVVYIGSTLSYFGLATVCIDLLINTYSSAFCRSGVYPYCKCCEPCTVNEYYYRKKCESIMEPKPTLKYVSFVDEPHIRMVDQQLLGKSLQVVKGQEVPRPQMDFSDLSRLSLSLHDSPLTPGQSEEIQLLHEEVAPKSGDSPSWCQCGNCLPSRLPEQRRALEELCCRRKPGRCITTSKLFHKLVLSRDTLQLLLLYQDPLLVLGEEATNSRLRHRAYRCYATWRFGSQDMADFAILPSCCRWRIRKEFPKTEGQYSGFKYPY
# Method: as §1
# as §2, with “Dose inhibition curves were plotted using GraphPad Prism v6 nonlinear regression (three parameter fit) and log IC50 values reported.” left out
compound,measurement,setting,value
O=C(CC12CC3CC(CC(C3)C1)C2)Nc1cccc2nc(NCCNCCO)ccc12 [AZ10606120],IC50,"[1]; log IC50 ± standard error, read-out: Log IC50 (converted)",0.0525 µM
same,IC50,"[1]; mean in brackets, read-out: mean IC50",0.0531 µM
same,IC50,[2],0.524 µM
